Assays:
Assay type in all cases: binding
[1] = system: antiserum produced against oestriol conjugated to albumin (antiserum A); experiment: radioimmunoassay of oestriol, standard curve, antiserum A
Method: (§1) In the assay, an accurately known volume of the biological fluid is incubated with a standard amount of the radio-iodinated oestrogen derivative and a standard amont of the specific reagent, e.g. antibody, insufficient to bind all the oestrogens present. The radio-iodinated oestrogen derivatives and the specific reagent may conveniently be provided in buffered solution containing horse serum. […] The radioactive concentration of the precipitate and/or the supernatant liquid is then counted by standard techniques. If an absolute determination is required, a calibration curve may be generated in the usual way by means of oestrogen, e.g. oestriol, solutions of known concentrations, conveniently also in horse serum.
(§2) Chloramine-T (0.5 mg in 100 μl water) is added to a stirred mixture of oestriol (50 μg in 400 ul ethanol) and Na^125 I (10mCi in 100 μl dilute NaOH), and the mixture is stirred for a further 5 minutes. Sodium metabisulphite (1.2 mg in 500 μl water) is then added and the mixture stirred for 5 minutes before 1 ml of 0.1 M HCl is added. The mixture is then vigorously stirred with 1 ml of chloroform. The aqueous layer is separated from the organic solvent, and the aqueous layer is re-extracted with a further 1 ml of chloroform. The pooled chloroform extracts are evaporated to dryness under a stream of nitrogen, and the residue is redissolved in 50 μl of ethanol. The ethanol solution of ^125 I -- labelled oestriol derivative is purified by chromatography and the product is diluted in phosphate buffer containing horse serum (10%), sodium azide (1 mg/ml) and gelatine (1 mg/ml) prior to use in the radioimmunoassay
(§3) Samples of 50 μl of standard solutions of oestriol in horse serum, or of the unknown human serum samples, are dispensed into plastic tubes. To each tube is added 200 μl of a solution of enzymes (extracted from the snail Helix pomatia) in sodium acetate buffer, pH 5, and the contents of the tubes are briefly mixed. The tubes are then stoppered and incubated in a water bath at 37° C for 2 hours. After the incubation, replicate 50 μl samples are taken from the hydrolysed serum and dispensed into plastic tubes. to each tube is added 200 μl of phosphate buffer containing 10% horse serum, sodium azide (1 mg/ml) gelatine (1 mg/ml), and the oestriol derivative labelled with ^125 I as described above (approximately 0.3 μCi/ml). Volumes of 200 μl of the phosphate buffer containing horse serum, sodium azide and gelatine, and containing a dilution of antiserum produced against oestriol conjugated to albumin are added to each tube, and the contents of the tubes are then mixed. The tubes are left at ambient temperature for 30 minutes, and 500 μl of an ammoniumm sulphate solution (5.4 g in 10 ml water) is then added to each tube. After mixing, the tubes are centrifuged, the supernatant liquid is removed by aspiration and the precipitates in the tubes are counted in a γ-counter.

[2] = system: antiserum produced against oestriol conjugated to albumin (antiserum B); experiment: radioimmunoassay of oestriol, standard curve, antiserum B
Method: as §1, §2, §3

[3] = system: antiserum produced by immunising with oestriol-6-carbomethoxyoxime-BSA (antiserum A); experiment: radioimmunoassay of oestetrol, standard curve, antiserum A; conditions: antiserum A 1/100, label age 7 days
[4] = system: antiserum produced by immunising with oestriol-6-carbomethoxyoxime-BSA (antiserum B); experiment: radioimmunoassay of oestetrol, standard curve, antiserum B; conditions: antiserum B 1/100, label age 7 days
[5] = system: antiserum produced by immunising with oestradiol-6-carbomethoxyoxime-BSA (Miles-Yeda); experiment: radioimmunoassay of oestradiol, standard curve, Miles-Yeda antiserum; conditions: Miles-Yeda antiserum as supplied, label age 23 days
[6] = system: antiserum produced by immunising with an oestradiol derivative coupled in the 6 position (The John Radcliffe Hospital, Oxford); experiment: radioimmunoassay of oestradiol, standard curve, John Radcliffe Hospital antiserum
[7] = system: antiserum produced by immunising with oestrone-6-carbomethoxyoximethyroglobulin (Miles-Yeda); experiment: radioimmunoassay of oestrone, standard curve, Miles-Yeda antiserum; conditions: Miles-Yeda antiserum as supplied, label age 23 days
[8] = system: antiserum produced by immunising with an oestrone derivative coupled in the 6 position (The John Radcliffe Hospital, Oxford); experiment: radioimmunoassay of oestrone, standard curve, John Radcliffe Hospital antiserum; conditions: J. Radcliffe Hosp. antiserum 1/32,000, label age 30 days
[9] = J. Radcliffe antiserum 1/640, label age 31 days
[10] = J. Radcliffe antiserum 1/3200, label age 30 days

C[C@]12CC[C@@H]3c4ccc(O)cc4CC[C@H]3[C@@H]1C[C@@H](O)[C@@H]2O [E3, Oestriol]
% Bound, 50 ng E3 ([1]; 50 ng E3): 57.2% | % Bound, 100 ng E3 ([1]; 100 ng E3): 47.3% | % Bound, 200 ng E3 ([1]; 200 ng E3): 32.6% | % Bound, 350 ng E3 ([1]; 350 ng E3): 23.0% | % Bound, 500 ng E3 ([1]; 500 ng E3): 17.5% | % Bound, 50 ng E3 ([2]; 50 ng E3): 55.2% | % Bound, 100 ng E3 ([2]; 100 ng E3): 47.3% | % Bound, 200 ng E3 ([2]; 200 ng E3): 33.0% | % Bound, 350 ng E3 ([2]; 350 ng E3): 21.4% | % Bound, 500 ng E3 ([2]; 500 ng E3): 17.3%

C[C@]12CC[C@@H]3c4ccc(O)cc4CC[C@H]3[C@@H]1[C@@H](O)[C@@H](O)[C@@H]2O [E4, oestetrol]
% Binding in presence of 20ng E4 [3]: 11.0% | % Binding in presence of 20ng E4 [4]: 8.1%

C[C@]12CC[C@@H]3c4ccc(O)cc4CC[C@H]3[C@@H]1CC[C@@H]2O [E2, oestradiol]
% Bound, 1ng E2 [5]: 4.0% | % Bound, 1ng E2 [6, 9]: 32.7% | % Bound, 2ng E2 [6, 9]: 13.1% | % Bound, 1ng E2 [6, 10]: 3.0% | % Bound, 2ng E2 [6, 10]: 0.5%

C[C@]12CC[C@@H]3c4ccc(O)cc4CC[C@H]3[C@@H]1CCC2=O [E1, oestrone]
% Bound, 1ng oestrone [7]: 15.4% | % Bound, 1ng oestrone [8]: 11.2%

Reference: patent US4062733A, “Radio-assay of oestrogen” (The Radiochemical Centre Limited, priority 1975, dated 1977)
